As a reminder, the IC50 is the concentration at which inhibition is half-maximal. A lower IC50 goes with greater potency in that assay.

This passage reports IC50 results from publication PMC4930906 (The Korean Journal of Physiology & Pharmacology : Official …, 2016).

One assay deals with T1, TRESK (Mus musculus, UniProt Q6VV64).
T1 sequence (Q6VV64 1-394): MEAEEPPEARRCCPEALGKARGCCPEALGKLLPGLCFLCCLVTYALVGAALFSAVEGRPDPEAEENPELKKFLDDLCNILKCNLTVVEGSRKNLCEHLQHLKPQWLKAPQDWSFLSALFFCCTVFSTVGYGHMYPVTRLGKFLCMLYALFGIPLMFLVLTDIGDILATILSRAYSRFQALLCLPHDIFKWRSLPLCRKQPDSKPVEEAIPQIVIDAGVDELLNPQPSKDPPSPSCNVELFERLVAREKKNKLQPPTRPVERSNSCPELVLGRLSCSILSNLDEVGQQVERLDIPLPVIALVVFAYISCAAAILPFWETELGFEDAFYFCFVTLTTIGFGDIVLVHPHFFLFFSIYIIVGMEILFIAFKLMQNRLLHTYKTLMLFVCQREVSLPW
Put plainly: whole-cell patch clamp, HEK293, voltage ramp, current at +[…] mV. It counts as cell-based. A general note: Patch clamp records ionic current or voltage across a cell membrane.

Another assay deals with T2, TREK-2 (Rattus norvegicus, UniProt Q9JIS4).
T2 sequence (Q9JIS4 1-538): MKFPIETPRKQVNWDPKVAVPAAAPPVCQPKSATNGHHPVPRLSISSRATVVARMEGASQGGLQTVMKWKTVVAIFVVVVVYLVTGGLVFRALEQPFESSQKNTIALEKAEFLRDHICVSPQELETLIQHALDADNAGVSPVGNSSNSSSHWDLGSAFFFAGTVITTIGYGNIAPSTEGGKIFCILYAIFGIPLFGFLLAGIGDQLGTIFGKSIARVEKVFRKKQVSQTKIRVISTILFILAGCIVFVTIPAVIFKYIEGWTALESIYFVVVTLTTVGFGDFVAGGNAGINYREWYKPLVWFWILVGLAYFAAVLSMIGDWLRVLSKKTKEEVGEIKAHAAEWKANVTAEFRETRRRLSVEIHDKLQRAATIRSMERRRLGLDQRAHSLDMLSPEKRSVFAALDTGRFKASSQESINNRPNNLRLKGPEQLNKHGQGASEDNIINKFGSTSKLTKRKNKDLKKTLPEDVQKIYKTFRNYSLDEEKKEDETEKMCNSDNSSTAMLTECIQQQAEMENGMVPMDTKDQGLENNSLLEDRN
The description is as above. It counts as cell-based.

`CC(=O)Nc1ccc(O)cc1` [acetaminophen] registered a half-maximal inhibitory concentration (IC50) at TRESK of 220 ± 26 µM.

Take `CN(C)CCC=C1c2ccccc2CCc2ccccc21` [amitriptyline]: the IC50 on TREK-2 worked out at 16 ± 4 µM; against TRESK, 26 ± 5 µM. On to `CC(NC(C)(C)C)C(=O)c1cccc(Cl)c1` (stereo not shown) [bupropion], for which inhibition on TRESK was half-maximal at 160 ± 17 µM (IC50).

Take `CN(C)CCCC1(c2ccc(F)cc2)OCc2cc(C#N)ccc21` (stereo not shown) [citalopram]: the IC50 at TREK-2 is 110 ± 9 µM; against TRESK it was 168 ± 11 µM. For the molecule `CN(C)CCC[C@@]1(c2ccc(F)cc2)OCc2cc(C#N)ccc21` [escitalopram], the IC50 worked out at 102 ± 9 µM on TREK-2 and 49 ± 7 µM against TRESK. `CC(C)Cc1ccc(C(C)C(=O)O)cc1` (stereo not shown) [ibuprofen]: the IC50 at TRESK amounted to 889 ± 10 µM. The same measure, in the same setting: to `COc1ccc2cc(CCC(C)=O)ccc2c1` [nabumetone] belongs 557 ± 35 µM.
